Results as given in patent publication US20260308186A1, “STAT DEGRADERS AND USES THEREOF” (Recludix Pharma, Inc., priority 2023, published 2026).
Where two headings read alike, the source gives them in different places.

Experiments:
pSTAT6 = molecular target: T1, pSTAT6 (Homo sapiens, UniProt P42226); assay: MSD-pSTAT-PBMC Assay, pSTAT6 (IL-4 stimulated PBMC); type: cell-based
T1 construct: pY641-STAT6 MSD read-out
T1 sequence (P42226 1-847): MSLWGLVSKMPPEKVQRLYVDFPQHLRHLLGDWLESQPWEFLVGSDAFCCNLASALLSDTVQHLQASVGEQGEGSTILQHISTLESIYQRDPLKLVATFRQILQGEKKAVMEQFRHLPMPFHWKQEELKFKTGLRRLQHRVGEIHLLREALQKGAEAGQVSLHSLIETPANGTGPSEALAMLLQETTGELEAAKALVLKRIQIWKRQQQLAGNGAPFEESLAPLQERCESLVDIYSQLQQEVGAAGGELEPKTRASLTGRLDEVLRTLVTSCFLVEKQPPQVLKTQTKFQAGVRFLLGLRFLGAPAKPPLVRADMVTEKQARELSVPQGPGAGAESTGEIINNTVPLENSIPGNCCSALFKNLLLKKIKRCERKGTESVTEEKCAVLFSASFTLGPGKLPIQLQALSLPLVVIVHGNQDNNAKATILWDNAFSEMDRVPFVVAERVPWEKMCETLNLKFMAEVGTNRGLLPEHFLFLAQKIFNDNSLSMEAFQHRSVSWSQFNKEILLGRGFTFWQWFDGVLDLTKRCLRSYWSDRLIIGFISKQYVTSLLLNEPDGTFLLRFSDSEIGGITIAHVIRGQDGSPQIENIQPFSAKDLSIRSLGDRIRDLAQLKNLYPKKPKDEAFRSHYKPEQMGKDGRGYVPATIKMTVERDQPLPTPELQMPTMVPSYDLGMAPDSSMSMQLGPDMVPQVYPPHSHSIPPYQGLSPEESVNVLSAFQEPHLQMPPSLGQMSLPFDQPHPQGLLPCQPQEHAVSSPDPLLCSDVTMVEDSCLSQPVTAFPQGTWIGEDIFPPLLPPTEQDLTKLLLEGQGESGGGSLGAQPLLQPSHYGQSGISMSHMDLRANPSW
Source text: Cryopreserved Peripheral Blood Mononuclear Cells (PBMC) are from AllCells. Recombinant Human IL-4 and IL-6 are from Peprotech. Mouse monoclonal anti-STAT3 antibody, rabbit monoclonal anti-pY705-STAT3 antibody, rabbit monoclonal Anti-pY641-STAT6 antibody, and lysis buffer are from Cell Signaling Technology (CST). Mouse monoclonal anti-STAT6 antibody is from BioLegend. Assay plates, blocker, and anti-rabbit secondary antibody are from Meso Scale Discovery (MSD).
Cryopreserved PBMCs were thawed out and allowed to recover overnight in IMDM+10% heat-inactivated FBS prior to plating 50,000 (STAT3) or 25,000 (STAT6) cells per well in 96-well U-bottom tissue culture plates. Cells were treated with compound for 3 hrs. then stimulated with 10 ng/mL IL-6 (STAT3) or 1 ng/mL IL-4 (STAT6) for 10 min. Cells were then spun down and washed with ice-cold PBS prior to lysing the cell pellet with 1× lysis buffer (CST) with 1×HALT protease and phosphatase inhibitor cocktail (Thermo). Lysates were transferred to and incubated overnight at 4° C. with shaking in QuickPlex 96-well high bind assay plates (MSD) pre-coated overnight with 30 μL per well of 0.6 μg/mL mouse monoclonal anti-STAT3 antibody (STAT3) or 2 μg/mL mouse monoclonal anti-STAT6 antibody (STAT6) in 1×PBS, and pre-blocked for 1 hour with 3% Blocker-A (MSD). Captured protein in the assay plates were then washed and probed with 25 μL per well of 0.25 μg/ml rabbit monoclonal anti-pY705-STAT3 antibody (STAT3) or 0.18 μg/ml rabbit monoclonal Anti-pY641-STAT6 antibody (STAT6) in 1% Blocker-A for 1 hour at room temperature with shaking, then washed and probed with 25 ul per well of 1 ug/ml Sulfo-TAG Labeled Goat Anti-Rabbit Antibody (MSD) in 1% Blocker-A for 1 hour at room temperature with shaking. Assay plates were then washed and 150 μL of 1× Read Buffer-T (MSD) was added to each well prior to reading on an SQ120 MSD Plate Reader. Assay signal from each sample was subtracted by the signal from unstimulated control wells and normalized to DMSO control wells. IC50 values were calculated using Graph Pad Prism Dose-Response Nonlinear Regression with variable slope. For both pSTAT3 and pSTAT6 A=≤100 nM; B=>100-1000 nM; C=>1000-3000 nM; and D=>3 μM.

STAT3 = molecular target: T2, STAT3 (Homo sapiens, UniProt P40763); assay: STAT3 Fluorescence Polarization (FP) Assay; type: binding; settings: recombinant STAT3 25 nM; probe 5-FAM-GpYLPQTV-NH2 2 nM; 45 min, room temperature; read-out: STAT3 FP IC50
T2 construct: Recombinant STAT3 protein (STAT3(G127-1722))
T2 sequence (P40763 127-722 limits assumed): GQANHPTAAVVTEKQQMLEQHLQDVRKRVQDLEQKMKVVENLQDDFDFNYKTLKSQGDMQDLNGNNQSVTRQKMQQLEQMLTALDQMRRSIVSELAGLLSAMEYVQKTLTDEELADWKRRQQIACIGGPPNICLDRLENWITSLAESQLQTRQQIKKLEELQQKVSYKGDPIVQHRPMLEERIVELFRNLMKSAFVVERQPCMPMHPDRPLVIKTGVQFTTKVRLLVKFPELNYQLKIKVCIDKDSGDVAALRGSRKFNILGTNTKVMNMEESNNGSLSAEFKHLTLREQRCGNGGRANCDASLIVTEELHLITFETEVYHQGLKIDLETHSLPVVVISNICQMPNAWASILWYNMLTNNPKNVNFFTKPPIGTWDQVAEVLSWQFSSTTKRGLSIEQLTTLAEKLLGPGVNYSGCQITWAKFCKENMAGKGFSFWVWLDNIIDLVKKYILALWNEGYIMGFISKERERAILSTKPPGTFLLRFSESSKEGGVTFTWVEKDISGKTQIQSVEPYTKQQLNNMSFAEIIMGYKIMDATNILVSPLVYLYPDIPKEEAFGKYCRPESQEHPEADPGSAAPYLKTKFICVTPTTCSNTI
Description: STAT3 Fluorescence Polarization (FP) Assay
An FP assay was developed to determine IC50 values for test substances. Recombinant STAT3 protein (STAT3(G127-1722)) at 25 nM was combined with a fluorescently labeled, phosphotyrosine peptide probe (5-FAM-GpYLPQTV-NH2) at 2 nM in FP buffer (10 mM HEPES pH 7.4, 50 mM NaCl, 1 mM EDTA, 0.05% Tween 20.2 mM DTT). 50 μL of STAT3-probe mixture was added to serial diluted compounds in black, 96-well plates (Greiner BioOne 655076) to a final concentration of 1% DMSO. Reaction components were mixed, and FP was measured after 45-minute incubation at room temperature using a Tecan Spark multimode plate reader. FP signal (mP) was plotted against the log concentration of the test substances and IC50 values were calculated by nonlinear regression analysis using GraphPad Prism software. For STAT3 FP assay. A=≤100 nM; B=>100-1000 nM; C=>1-10 μM; and D=>10 μM.

[1] = read-out: pSTAT6 IC50, compound 3 hrs, then 1 ng/mL IL-4 for 10 min, pY641-STAT6
[2] = compound 3 hrs, then 1 ng/mL IL-4 for 10 min, pY641-STAT6, read-out: pSTAT6 IC50

Row | SMILES | IC50 (pSTAT6; [2]) [µM] | IC50 (STAT3) [µM] | IC50 (pSTAT6; [1]) [µM]
1 | CCCOC(=O)[C@H](C)NP(=O)(Cc1ccc2ccc(C(=O)N[C@H]3CN(C(=O)c4n[nH]c5ccc(C)cc45)CC[C@H]4CC[C@@H](C(=O)N(C)CCCCCCC#Cc5cccc6c5CN(C5CCC(=O)NC5=O)C6=O)N4C3=O)cc2c1)Oc1ccccc1 (stereo partly drawn) [Compound 16, propyl (((7-(((5S,8S,10aR)-8-((8-(2-(2,6-dioxopiperidin-3-yl)-1-oxoisoindolin-4-yl)oct-7-yn-1-yl)(methyl)carbamoyl)-3-(5-methyl-1H-indazole-3-carbonyl)-6-oxodecahydropyrrolo[1,2-a][1,5]diazocin-5-yl)carbamoyl)naphthalen-2-yl)methyl)(phenoxy)phosphoryl)-L-alaninate] | – | – | > 3
2 | CCCOC(=O)[C@H](C)NP(=O)(Oc1ccccc1)C(F)c1ccc2ccc(C(=O)N[C@H]3CN(C(=O)c4noc5ccc(C)cc45)CC[C@H]4CC[C@@H](C(=O)N(C)CCCCCCC#Cc5cccc6c5CN(C5CCC(=O)NC5=O)C6=O)N4C3=O)cc2c1 (stereo partly drawn) [Compound 26, propyl (((7-(((5S,8S,10aR)-8-((8-(2-(2,6-dioxopiperidin-3-yl)-1-oxoisoindolin-4-yl)oct-7-yn-1-yl)(methyl)carbamoyl)-3-(5-methylbenzo[d]isoxazole-3-carbonyl)-6-oxodecahydropyrrolo[1,2-a][1,5]diazocin-5-yl)carbamoyl)naphthalen-2-yl)fluoromethyl)(phenoxy)phosphoryl)-L-alaninate] | – | – | > 3
3 | CC(=O)N[C@H](C(=O)N1C[C@H](O)C[C@H]1C(=O)NCc1ccc(-c2scnc2C)cc1OCCCCN(C)C(=O)[C@@H]1CC[C@@H]2CCN(C(=O)c3noc4ccc(C)cc34)C[C@H](NC(=O)c3ccc4ccc(C(F)(F)P(=O)(O)O)cc4c3)C(=O)N21)C(C)(C)C [Compound 31, ((7-(((5S,8S,10aR)-8-((4-(2-(((2S,4R)-1-((S)-2-acetamido-3,3-dimethylbutanoyl)-4-hydroxypyrrolidine-2-carboxamido)methyl)-5-(4-methylthiazol-5-yl)phenoxy)butyl)(methyl)carbamoyl)-3-(5-methylbenzo[d]isoxazole-3-carbonyl)-6-oxodecahydropyrrolo[1,2-a][1,5]diazocin-5-yl)carbamoyl)naphthalen-2-yl)difluoromethyl)phosphonic acid] | > 3 | 1 to 10 | –

More lines, main results first:

Row | IC50 (pSTAT6; [2]) [µM] | IC50 (STAT3) [µM] | SMILES | IC50 (pSTAT6; [1]) [µM]
4 | > 3 | – | Cc1ccc2onc(C(=O)N3CC[C@H]4CC[C@@H](C(=O)N(C)CCCCCCC#Cc5cccc6c5CN(C5CCC(=O)NC5=O)C6=O)N4C(=O)[C@@H](NC(=O)c4ccc5ccc(C(F)(F)P(=O)(O)OCCSC(=O)C(C)(C)C)cc5c4)C3)c2c1 (stereo partly drawn) [Compound 17, S-(2-((((7-(((5S,8S,10aR)-8-((8-(2-(2,6-dioxopiperidin-3-yl)-1-oxoisoindolin-4-yl)oct-7-yn-1-yl)(methyl)carbamoyl)-3-(5-methylbenzo[d]isoxazole-3-carbonyl)-6-oxodecahydropyrrolo[1,2-a][1,5]diazocin-5-yl)carbamoyl)naphthalen-2-yl)difluoromethyl)(hydroxy)phosphoryl)oxy)ethyl) 2,2-dimethylpropanethioate] | –
5 | < 0.1 | – | Cc1ccc2onc(C(=O)N3CC[C@H]4CC[C@@H](C(=O)N(C)CCCCCCC#Cc5cccc6c5CN(C5CCC(=O)NC5=O)C6=O)N4C(=O)[C@@H](NC(=O)c4ccc5ccc(C(F)(F)P(=O)(OCCSC(=O)C(C)(C)C)OCCSC(=O)C(C)(C)C)cc5c4)C3)c2c1 (stereo partly drawn) [Compound 18, S,S′-(((((7-(((5S,8S,10aR)-8-((8-(2-(2,6-dioxopiperidin-3-yl)-1-oxoisoindolin-4-yl)oct-7-yn-1-yl)(methyl)carbamoyl)-3-(5-methylbenzo[d]isoxazole-3-carbonyl)-6-oxodecahydropyrrolo[1,2-a][1,5]diazocin-5-yl)carbamoyl)naphthalen-2-yl)difluoromethyl)phosphoryl)bis(oxy))bis(ethane-2,1-diyl)) bis(2,2-dimethylpropanethioate)] | –
6 | < 0.1 | – | Cc1ccc2onc(C(=O)N3CC[C@H]4CC[C@@H](C(=O)N(C)CCCCCCC#Cc5cccc6c5CN(C5CCC(=O)NC5=O)C6=O)N4C(=O)[C@@H](NC(=O)c4ccc5ccc(C(F)(F)P(=O)(OCOC(=O)OC(C)C)OCOC(=O)OC(C)C)cc5c4)C3)c2c1 (stereo partly drawn) [Compound 19, ((((7-(((5S,8S,10aR)-8-((8-(2-(2,6-dioxopiperidin-3-yl)-1-oxoisoindolin-4-yl)oct-7-yn-1-yl)(methyl)carbamoyl)-3-(5-methylbenzo[d]isoxazole-3-carbonyl)-6-oxodecahydropyrrolo[1,2-a][1,5]diazocin-5-yl)carbamoyl)naphthalen-2-yl)difluoromethyl)phosphoryl)bis(oxy))bis(methylene) diisopropyl bis(carbonate)] | –
7 | 1 to 3 | – | Cc1ccc2onc(C(=O)N3CC[C@H]4CC[C@@H](C(=O)N(C)CCCCCCC#Cc5cccc6c5CN(C5CCC(=O)NC5=O)C6=O)N4C(=O)[C@@H](NC(=O)c4ccc5ccc(C(F)(F)P(=O)(O)OCOC(=O)OC(C)C)cc5c4)C3)c2c1 (stereo partly drawn) [Compound 20, ((((7-(((5S,8S,10aR)-8-((8-(2-(2,6-dioxopiperidin-3-yl)-1-oxoisoindolin-4-yl)oct-7-yn-1-yl)(methyl)carbamoyl)-3-(5-methylbenzo[d]isoxazole-3-carbonyl)-6-oxodecahydropyrrolo[1,2-a][1,5]diazocin-5-yl)carbamoyl)naphthalen-2-yl)difluoromethyl)(hydroxy)phosphoryl)oxy)methyl isopropyl carbonate] | –
8 | > 3 | – | Cc1ccc2onc(C(=O)N3CC[C@H]4CC[C@@H](C(=O)N(C)CCCCCCC#Cc5cccc6c5CN(C5CCC(=O)NC5=O)C6=O)N4C(=O)[C@@H](NC(=O)c4ccc5ccc(C(F)(F)P(=O)(O)OCCSC(=O)CC(C)C)cc5c4)C3)c2c1 (stereo partly drawn) [Compound 23, S-(2-((((7-(((5S,8S,10aR)-8-((8-(2-(2,6-dioxopiperidin-3-yl)-1-oxoisoindolin-4-yl)oct-7-yn-1-yl)(methyl)carbamoyl)-3-(5-methylbenzo[d]isoxazole-3-carbonyl)-6-oxodecahydropyrrolo[1,2-a][1,5]diazocin-5-yl)carbamoyl)naphthalen-2-yl)difluoromethyl)(hydroxy)phosphoryl)oxy)ethyl) 3-methylbutanethioate] | –
